# In ChEMBL document CHEMBL1201862, “PubChem BioAssay data set” (2004):
# The source made the active and inactive calls.
# Legend:
# Beta Lactamase = Beta Lactamase (Pseudomonas aeruginosa, UniProt Q932Y6); assay: beta-lactamase reporter inhibitor potency, dose response, artefact control for TLR9-MyD88 binding inhibitor project, BLA reporter cells, FRET fluorescence (AID 588341); format: cell-based;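 also: cell based assay in CHO-K1 cells stably expressing beta-lactamase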
# CHO = assay: cytotoxicity in TLR9-MyD88 CHO cells, dose response, cytotoxicity control for TLR9-MyD88 binding inhibitor project, cell-based, luminescence (AID 588339); format: functional, hamster; conditions: Cricetulus griseus;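 also: CHO cells stably coexpressing TLR9 and MyD88 fusions from primary screen; compound exposure lasted 48 hours before viability readout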
# [1] = target: Glucose-6-phosphate 1-dehydrogenase (Homo sapiens, UniProt P11413); assay: human G6PD enzyme inhibitors, dose response, selectivity assay for P. falciparum G6PD inhibitor project, biochemical, fluorescence (AID 504792); format: functional
# Glucose-6-phosphate 1-dehydrogenase, sequence (P11413 whole entry): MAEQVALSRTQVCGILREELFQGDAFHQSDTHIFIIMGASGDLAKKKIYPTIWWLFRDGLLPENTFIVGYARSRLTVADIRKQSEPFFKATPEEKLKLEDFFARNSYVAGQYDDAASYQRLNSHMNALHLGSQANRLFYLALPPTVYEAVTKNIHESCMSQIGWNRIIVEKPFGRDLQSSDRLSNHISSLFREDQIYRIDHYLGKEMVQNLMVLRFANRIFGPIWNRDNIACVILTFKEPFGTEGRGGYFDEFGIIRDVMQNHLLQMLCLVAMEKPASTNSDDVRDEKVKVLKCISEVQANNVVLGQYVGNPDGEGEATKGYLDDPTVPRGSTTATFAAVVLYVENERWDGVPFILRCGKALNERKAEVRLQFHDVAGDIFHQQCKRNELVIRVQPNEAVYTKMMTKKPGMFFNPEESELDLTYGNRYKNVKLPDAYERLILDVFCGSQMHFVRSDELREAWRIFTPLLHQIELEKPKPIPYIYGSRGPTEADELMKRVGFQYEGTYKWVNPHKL
# [2] = target: T1, Nuclear receptor subfamily 0 group B member 1 (Homo sapiens, UniProt P51843); format: functional, cell-based;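 also: HEK293T cells transfected with SF-1 and DAX-1 plus StAR promoter luciferase reporter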
# T1 sequence (P51843 whole entry): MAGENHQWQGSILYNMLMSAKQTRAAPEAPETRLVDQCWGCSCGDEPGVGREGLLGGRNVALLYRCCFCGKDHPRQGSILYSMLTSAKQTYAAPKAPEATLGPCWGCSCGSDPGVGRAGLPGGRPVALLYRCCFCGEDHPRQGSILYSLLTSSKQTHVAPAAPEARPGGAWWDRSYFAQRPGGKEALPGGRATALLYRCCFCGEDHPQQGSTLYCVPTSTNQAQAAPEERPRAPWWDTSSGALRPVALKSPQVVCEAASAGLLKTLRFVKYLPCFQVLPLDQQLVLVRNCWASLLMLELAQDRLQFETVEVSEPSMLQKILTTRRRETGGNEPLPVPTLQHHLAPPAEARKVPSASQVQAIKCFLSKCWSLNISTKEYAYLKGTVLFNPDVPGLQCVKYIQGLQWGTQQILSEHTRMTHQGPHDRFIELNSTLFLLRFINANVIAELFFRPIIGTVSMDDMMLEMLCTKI
# cells [3] = format: functional, cell-based
# [4] = CRF-BP/CRF-R2 complex antagonists, dose response, cell-based, uHTS hits, 384-well (AID 651639); format: functional, Homo sapiens; conditions: read-out: IC50_Mean
# [5] = target: T2, Corticotropin-releasing factor receptor 2/Corticotropin-releasing factor-binding protein (Homo sapiens, UniProt P24387+Q13324); assay: Dose Response confirmation of uHTS hits for small molecule antagonists of the CRF-binding protein and CRF-R2 receptor complex.; format: functional; conditions: read-out: IC50_Mean
# T2 sequence (Q13324 whole entry): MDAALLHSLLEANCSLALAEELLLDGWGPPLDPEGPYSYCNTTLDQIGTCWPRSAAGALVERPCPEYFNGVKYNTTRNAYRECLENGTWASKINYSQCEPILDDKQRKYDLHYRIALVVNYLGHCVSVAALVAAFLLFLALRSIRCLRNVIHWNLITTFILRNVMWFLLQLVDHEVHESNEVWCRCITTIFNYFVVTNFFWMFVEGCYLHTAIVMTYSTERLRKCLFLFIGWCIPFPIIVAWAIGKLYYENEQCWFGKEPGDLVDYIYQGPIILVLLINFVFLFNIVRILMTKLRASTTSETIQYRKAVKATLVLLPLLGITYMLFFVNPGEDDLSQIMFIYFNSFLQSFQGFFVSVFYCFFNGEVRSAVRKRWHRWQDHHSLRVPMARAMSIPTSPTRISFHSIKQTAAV
# T2 sequence (P24387 whole entry): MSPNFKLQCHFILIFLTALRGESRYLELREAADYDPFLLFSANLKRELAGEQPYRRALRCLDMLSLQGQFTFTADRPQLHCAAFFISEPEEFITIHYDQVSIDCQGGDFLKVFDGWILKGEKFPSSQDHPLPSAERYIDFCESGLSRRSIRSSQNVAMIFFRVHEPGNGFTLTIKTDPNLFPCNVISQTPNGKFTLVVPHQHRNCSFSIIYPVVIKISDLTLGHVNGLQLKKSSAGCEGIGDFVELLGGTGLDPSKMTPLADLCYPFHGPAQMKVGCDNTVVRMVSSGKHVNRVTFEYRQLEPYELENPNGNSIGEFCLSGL
# [6] = target: T2, Corticotropin-releasing factor receptor 2/Corticotropin-releasing factor-binding protein; assay: activators of CRF receptor 2 with binding protein – uHTS hits, confirmation (AID 602473); format: functional; conditions: read-out: EC50_Mean
# [7] = inhibitors of intracellular T. cruzi replication, confirmation, NIH3T3 host cells, beta-gal luminescence (AID 2044); format: functional, cell-based;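 also: intracellular parasites grown in NIH/3T3 mouse fibroblasts as host cells; luminescent beta-galactosidase reporter signal from transgenic T. cruzi replicating inside host cells; inhibitors lower the luminescence signal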
# [8] = THP-1 cell cytotoxicity, dose response, cytotoxicity control for non-replicating M. tuberculosis project (AID 489025); format: functional
# cells [9] = format: functional
# [10] = cytotoxicity toward NIH3T3 fibroblasts, dose response, counter-screen, cell-based, ATP luminescence, mouse fibroblasts (AID 2010); format: functional;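 also: cells exposed to compound for about 90 hours before reading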
# cells [11] = assay: cells
# [12] = HepG2 cell cytotoxicity, dose response, cytotoxicity control for non-replicating M. tuberculosis project (AID 489018); format: functional; conditions: Mycobacterium tuberculosis
# [13] = target: T3, Oxysterols receptor LXR-beta (Homo sapiens, UniProt P55055); format: functional, cell-based;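 also: Cell-based luminescence dose-response assay of agonist activity at LXR, run as a confirmatory counterscreen to a daf-12 agonist screen; HEK293 cells with Gal4-LXR fusion and GAL4-driven luciferase reporter; agonist potency from rising luciferase signal of a Gal4-LXR reporter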
# T3 sequence (P55055 whole entry): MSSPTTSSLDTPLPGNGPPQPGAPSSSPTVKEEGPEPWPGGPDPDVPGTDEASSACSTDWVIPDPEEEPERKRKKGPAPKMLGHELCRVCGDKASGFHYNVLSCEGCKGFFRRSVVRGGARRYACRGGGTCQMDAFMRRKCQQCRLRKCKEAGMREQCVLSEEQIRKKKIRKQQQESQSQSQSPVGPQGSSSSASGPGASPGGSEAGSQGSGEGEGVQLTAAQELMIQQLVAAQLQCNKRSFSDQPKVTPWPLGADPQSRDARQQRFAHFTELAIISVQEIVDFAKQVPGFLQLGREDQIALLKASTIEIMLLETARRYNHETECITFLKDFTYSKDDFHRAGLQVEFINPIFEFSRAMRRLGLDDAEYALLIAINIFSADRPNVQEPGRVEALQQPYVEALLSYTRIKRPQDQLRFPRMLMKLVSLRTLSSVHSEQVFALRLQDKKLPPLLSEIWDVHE
# [14] = HEK293T cytotoxicity, dose response, cytotoxicity control for miR-122 modulator project, cell-based, inhibitor set, cherry-pick, set 2 (AID 720697); format: functional
# [15] = inhibitors of PGC1a acetylation in cells, dose response, cell-based, cherry-picked samples (AID 720514); format: functional;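 also: potency may reflect raised or lowered acetylation signal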
# Cytochrome P450 2D6 = Cytochrome P450 2D6 (Homo sapiens, UniProt P10635);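 also: CYP2D6 member of a cytochrome P450 panel assay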
# Cytochrome P450 2D6, sequence (P10635 whole entry): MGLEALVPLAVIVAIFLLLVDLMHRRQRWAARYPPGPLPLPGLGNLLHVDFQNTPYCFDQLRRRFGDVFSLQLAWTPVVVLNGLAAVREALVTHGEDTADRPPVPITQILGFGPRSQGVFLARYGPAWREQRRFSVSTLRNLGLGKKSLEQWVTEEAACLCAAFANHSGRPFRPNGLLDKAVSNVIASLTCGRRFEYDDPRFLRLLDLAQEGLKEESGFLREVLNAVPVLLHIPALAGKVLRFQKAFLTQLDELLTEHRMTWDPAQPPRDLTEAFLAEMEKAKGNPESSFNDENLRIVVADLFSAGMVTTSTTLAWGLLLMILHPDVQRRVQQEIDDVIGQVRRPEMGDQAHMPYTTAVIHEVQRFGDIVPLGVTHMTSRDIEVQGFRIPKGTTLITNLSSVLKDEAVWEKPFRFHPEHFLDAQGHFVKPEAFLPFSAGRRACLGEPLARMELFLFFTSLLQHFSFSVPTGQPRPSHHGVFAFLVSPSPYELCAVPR
# Cytochrome P450 2C9 = Cytochrome P450 2C9 (Homo sapiens, UniProt P11712)
# Cytochrome P450 2C9, sequence (P11712 whole entry): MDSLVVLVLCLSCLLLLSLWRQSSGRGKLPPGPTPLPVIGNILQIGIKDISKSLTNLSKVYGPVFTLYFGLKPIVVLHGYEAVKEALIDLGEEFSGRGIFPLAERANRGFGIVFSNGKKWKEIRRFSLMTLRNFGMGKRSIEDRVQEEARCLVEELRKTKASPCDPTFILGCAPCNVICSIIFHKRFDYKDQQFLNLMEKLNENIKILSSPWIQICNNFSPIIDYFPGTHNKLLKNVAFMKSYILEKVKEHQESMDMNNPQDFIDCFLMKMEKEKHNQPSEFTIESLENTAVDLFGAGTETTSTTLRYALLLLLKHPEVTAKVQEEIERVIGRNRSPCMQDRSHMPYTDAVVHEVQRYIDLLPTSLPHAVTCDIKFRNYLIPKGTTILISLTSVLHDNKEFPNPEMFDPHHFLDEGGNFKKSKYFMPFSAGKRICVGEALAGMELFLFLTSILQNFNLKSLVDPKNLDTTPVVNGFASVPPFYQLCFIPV
# Cytochrome P450 3A4 = Cytochrome P450 3A4 (Homo sapiens, UniProt P08684);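 also: CYP3A4 tested as one member of a cytochrome P450 panel screen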
# Cytochrome P450 3A4, sequence (P08684 whole entry): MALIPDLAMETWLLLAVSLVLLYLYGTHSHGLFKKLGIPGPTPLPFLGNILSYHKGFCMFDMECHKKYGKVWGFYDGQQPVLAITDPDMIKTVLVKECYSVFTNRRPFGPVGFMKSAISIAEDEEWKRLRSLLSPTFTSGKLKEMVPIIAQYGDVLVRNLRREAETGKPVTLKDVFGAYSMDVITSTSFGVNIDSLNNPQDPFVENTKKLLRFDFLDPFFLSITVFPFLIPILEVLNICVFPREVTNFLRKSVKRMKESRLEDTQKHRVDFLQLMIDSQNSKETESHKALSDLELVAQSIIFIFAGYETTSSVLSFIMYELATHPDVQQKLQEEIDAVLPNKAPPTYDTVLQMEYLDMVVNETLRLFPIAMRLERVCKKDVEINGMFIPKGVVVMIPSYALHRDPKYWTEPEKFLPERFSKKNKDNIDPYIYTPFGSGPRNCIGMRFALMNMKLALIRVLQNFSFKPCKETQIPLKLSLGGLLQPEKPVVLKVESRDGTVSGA
# Beta Lactamase, sequence (Q932Y6 whole entry, the tested form may be a part): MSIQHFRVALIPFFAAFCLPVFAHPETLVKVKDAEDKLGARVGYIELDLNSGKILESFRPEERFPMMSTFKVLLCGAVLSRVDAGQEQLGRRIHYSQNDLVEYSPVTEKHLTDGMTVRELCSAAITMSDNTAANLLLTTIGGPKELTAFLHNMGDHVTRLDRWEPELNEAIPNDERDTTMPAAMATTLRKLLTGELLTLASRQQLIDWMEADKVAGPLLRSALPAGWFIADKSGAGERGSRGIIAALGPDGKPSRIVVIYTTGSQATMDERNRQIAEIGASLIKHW
compound,measurement,setting,value
O=C1C=CC(=O)N1c1ccc2c(c1)C(NC(=O)C(F)(F)F)c1ccccc1-2 (centres undefined),IC50,Beta Lactamase,14.5 µM (inactive)
same,IC50,CHO,1.91 µM (active)
same,IC50,[1],> 80 µM (inactive)
O=C1C(=Cc2ccccc2Cl)CCc2ccccc21,IC50,[2],> 67.5 µM (inactive)
same,IC50,cells [3],> 67.5 µM (inactive)
Clc1ccc(Cl)c(Oc2ccc(Oc3nc(Cl)ccc3Cl)cc2)n1,IC50,[4],11.4 µM (active)
same,IC50,[5],0.727 µM (active)
same,EC50,[6],> 53 µM (inactive)
Cc1cc(C)n(CC(=O)N/N=C/c2ccc([N+](=O)[O-])s2)n1,EC50,[7],0.845 µM (active)
same,CC50,[8],> 40 µM (active)
same,IC50,cells [9],48.5 µM (active)
same,EC50,[10],> 60 µM (not active)
Cc1ccc(Cc2c(-c3ccc(Br)cc3)nc3cc(C)ccn23)cc1,IC50,[2],> 67.5 µM (inactive)
same,IC50,cells [3],> 67.5 µM (inactive)
C=C1[C@@H](C)C2[C@H](Cc3ccccc3)NC(=O)[C@]23[C@H](OC(C)=O)/C=C/[C@@](C)(O)C(=O)[C@@H](C)C/C=C/[C@H]3[C@@H]1O (some centres undefined),IC50,[2],14 µM (inactive)
same,IC50,cells [3],> 67.5 µM (inactive)
Cc1ccc(/N=N/c2c(C)[nH]n(C(N)=S)c2=O)cc1C,IC50,cells [9],10.1 µM (active)
same,EC50,cells [11],> 67.5 µM (inactive)
same,CC50,[12],> 20 µM (active)
same,EC50,[13],> 67.5 µM (inactive)
Cc1[nH]n(C(N)=S)c(=O)c1/N=N/c1ccc(Br)cc1,EC50,cells [11],> 67.5 µM (inactive)
same,EC50,[13],> 67.5 µM (inactive)
CO[C@@H]1CN(C)C(=O)c2cc(NC(=O)NC(C)C)ccc2OC[C@H](C)N(Cc2cncnc2)C[C@H]1C,AC50,[14],0.472 µM (active)
COc1ccccc1C#Cc1ccc2c(c1)O[C@@H](CN(C)Cc1cccnc1)[C@H](C)CN([C@@H](C)CO)S2(=O)=O,AC50,[15],2.25 µM (active)
C/C(=N/NC(=O)c1ccc2c(c1)OCO2)c1ccc(NC(=O)c2ccc(F)cc2)cc1,IC50,[2],> 67.5 µM (inactive)
same,IC50,cells [3],> 67.5 µM (inactive)
FC(F)(F)c1cccc(NC(=S)Nc2cccc(Cl)c2)c1,AC50,Cytochrome P450 2D6,28.2 µM (inconclusive)
same,AC50,Cytochrome P450 2C9,inconclusive
same,AC50,Cytochrome P450 3A4,25.1 µM (inconclusive)
